Experimental data: patent US9120791B2, “Indolizine compounds, a process for their preparation and pharmaceutical compositions containing them” (LES LABORATOIRES SERVIER, priority 2012, dated 2015)
Structures can show the parent of a compound that is named as a salt. Where two headings read alike, the source gives them in different places.

Experiments:
[1] = target: Bcl-2 protein (Homo sapiens (Human), UniProt P10415); test: Inhibition of Bcl-2 by the fluorescence polarisation technique; assay type: binding; conditions: fluorescence polarisation test; concentration that inhibits fluorescence polarisation by 50%; read-out: IC50 (nM) Bcl-2 FP
Method: The fluorescence polarisation tests were carried out on microplates (384 wells). […] After incubation for 2 hours, the fluorescence polarisation is measured.

[2] = tested on: RS4;11 leukaemia tumour line; test: In vitro cytotoxicity (Microculture Tetrazolium Assay, 48 hours); assay type: cell-based; conditions: RS4;11 cells, 48 hours exposure, MTT, concentration that inhibits cell viability by 50%, read-out: IC50 (nM) MTT RS4
Method: The cytotoxicity studies were carried out on the RS4;11 leukaemia tumour line.
The cells are distributed onto microplates and exposed to the test compounds for 48 hours.

Sequence of Bcl-2 protein (P10415 whole entry): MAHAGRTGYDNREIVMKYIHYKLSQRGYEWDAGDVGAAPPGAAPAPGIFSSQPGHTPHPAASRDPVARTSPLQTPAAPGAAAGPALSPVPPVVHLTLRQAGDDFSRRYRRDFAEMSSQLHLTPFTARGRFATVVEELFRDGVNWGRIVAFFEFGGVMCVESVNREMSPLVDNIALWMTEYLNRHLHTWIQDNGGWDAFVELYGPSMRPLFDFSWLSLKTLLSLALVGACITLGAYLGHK

Structure (SMILES)	IC50 [1]	IC50 [2]	IC50 ([2]; Homo sapiens)
C[C@H]1COC[C@H](C)N1C[C@@H]1Cc2ccccc2CN1C(=O)c1cc2c(cc1-c1cc(C(=O)N(c3ccc(O)cc3)c3ccc4c(ccn4C)c3)c3n1CCCC3)OCO2 [Example 17, 3-{6-[((3S)-3-{[(3S,5S)-3,5-Dimethylmorpholinyl]methyl}-3,4-dihydro-2(1H)-isoquinolinyl)carbonyl]-1,3-benzodioxol-5-yl}-N-(4-hydroxyphenyl)-N-(1-methyl-1H-indol-5-yl)-5,6,7,8-tetrahydro-1-indolizine carboxamide hydrochloride]	81 nM	120 nM	–
Cn1ccc2cc(N(C(=O)c3cc(-c4cc(Br)ccc4C(=O)N4Cc5ccccc5C[C@H]4CN4CCOCC4)n4c3CCCC4)c3ccc(O)cc3)ccc21 [Example 18, 3-{5-Bromo-2-[((3S)-3-(4-morpholinylmethyl)-3,4-dihydro-2(1H)-isoquinolinyl)carbonyl]phenyl}-N-(4-hydroxyphenyl)-N-(1-methyl-1H-indol-5-yl)-5,6,7,8-tetrahydro-1-indolizine carboxamide hydrochloride]	32 nM	–	24.9 nM
CN1CCc2cc(N(C(=O)c3cc(-c4cc(Br)ccc4C(=O)N4Cc5ccccc5C[C@H]4CN4CCOCC4)n4c3CCCC4)c3ccc(O)cc3)ccc21 [Example 19, 3-{5-Bromo-2-[((3S)-3-(4-morpholinylmethyl)-3,4-dihydro-2(1H)-isoquinolinyl)carbonyl]phenyl}-N-(4-hydroxyphenyl)-N-(1-methyl-2,3-dihydro-1H-indol-5-yl)-5,6,7,8-tetrahydro-1-indolizine carboxamide hydrochloride]	27 nM	–	42.3 nM
O=C(c1cc(-c2cc(Cl)ccc2C(=O)N2Cc3ccccc3C[C@H]2CN2CCOCC2)n2c1CCCC2)N(c1ccccc1)c1ccc(O)cc1 [Example 20, 3-{5-Chloro-2-[((3S)-3-(4-morpholinylmethyl)-3,4-dihydro-2(1H)-isoquinolinyl)carbonyl]phenyl}-N-(4-hydroxyphenyl)-N-phenyl-5,6,7,8-tetrahydro-1-indolizine carboxamide hydrochloride]	35 nM	–	105 nM
O=C(c1cc(-c2cc(Cl)ccc2C(=O)N2Cc3ccccc3C[C@H]2CN2CCOCC2)n2c1CCCC2)N(c1ccc(O)cc1)c1ccc2c(c1)CCN2 [Example 21, 3-{5-Chloro-2-[((3S)-3-(4-morpholinylmethyl)-3,4-dihydro-2(1H)-isoquinolinyl)carbonyl]phenyl}-N-(2,3-dihydro-1H-indol-5-yl)-N-(4-hydroxyphenyl)-5,6,7,8-tetrahydro-1-indolizine carboxamide bis(hydrochloride)]	22 nM	–	34.6 nM
Cn1ccc2cc(N(C(=O)c3cc(-c4cc(F)ccc4C(=O)N4Cc5ccccc5C[C@H]4CN4CCOCC4)n4c3CCCC4)c3ccc(O)cc3)ccc21 [Example 24, 3-{5-Fluoro-2-[((3S)-3-(4-morpholinylmethyl)-3,4-dihydro-2(1H)-isoquinolinyl)carbonyl]phenyl}-N-(4-hydroxyphenyl)-N-(1-methyl-1H-indol-5-yl)-5,6,7,8-tetrahydro-1-indolizine carboxamide hydrochloride]	17 nM	–	29.8 nM
O=C(c1cc(-c2cc(F)ccc2C(=O)N2Cc3ccccc3C[C@H]2CN2CCOCC2)n2c1CCCC2)N(c1ccccc1)c1ccc(O)cc1 [Example 25, 3-{5-Fluoro-2-[((3S)-3-(4-morpholinylmethyl)-3,4-dihydro-2(1H)-isoquinolinyl)carbonyl]phenyl}-N-(4-hydroxyphenyl)-N-phenyl-5,6,7,8-tetrahydro-1-indolizine carboxamide hydrochloride]	29 nM	–	143 nM
CN1CCCc2cc(N(C(=O)c3cc(-c4cc(Cl)ccc4C(=O)N4Cc5ccccc5C[C@H]4CN4CCOCC4)n4c3CCCC4)c3ccc(O)cc3)ccc21 [Example 26, 3-{5-Chloro-2-[((3S)-3-(4-morpholinylmethyl)-3,4-dihydro-2(1H)-isoquinolinyl)carbonyl]phenyl}-N-(4-hydroxyphenyl)-N-(1-methyl-1,2,3,4-tetrahydro-6-quinolinyl)-5,6,7,8-tetrahydro-1-indolizine carboxamide hydrochloride]	17 nM	–	40 nM
CN1CCOc2cc(N(C(=O)c3cc(-c4cc(Cl)ccc4C(=O)N4Cc5ccccc5C[C@H]4CN4CCOCC4)n4c3CCCC4)c3ccc(O)cc3)ccc21 [Example 27, 3-{5-Chloro-2-[((3S)-3-(4-morpholinylmethyl)-3,4-dihydro-2(1H)-isoquinolinyl)carbonyl]phenyl}-N-(4-hydroxyphenyl)-N-(4-methyl-3,4-dihydro-2H-1,4-benzoxazin-7-yl)-5,6,7,8-tetrahydro-1-indolizine carboxamide hydrochloride]	17 nM	–	35.4 nM
CCN(CC)c1ccc(N(C(=O)c2cc(-c3cc(Cl)ccc3C(=O)N3Cc4ccccc4C[C@H]3CN3CCOCC3)n3c2CCCC3)c2ccc(O)cc2)cc1 [Example 28, 3-{5-Chloro-2-[((3S)-3-(4-morpholinylmethyl)-3,4-dihydro-2(1H)-isoquinolinyl)carbonyl]phenyl}-N-[4-(diethylamino)phenyl]-N-(4-hydroxyphenyl)-5,6,7,8-tetrahydro-1-indolizine carboxamide hydrochloride]	25 nM	–	76.1 nM
O=C(c1cc(-c2cc(Cl)ccc2C(=O)N2Cc3ccccc3C[C@H]2CN2CCOCC2)n2c1CCCC2)N(c1ccc(O)cc1)c1ccc2c(c1)CCC2 [Example 29, 3-{5-Chloro-2-[((3S)-3-(4-morpholinylmethyl)-3,4-dihydro-2(1H)-isoquinolinyl)carbonyl]phenyl}-N-(2,3-dihydro-1H-inden-5-yl)-N-(4-hydroxyphenyl)-5,6,7,8-tetrahydro-1-indolizine carboxamide hydrochloride]	35 nM	–	85.5 nM
CN1CCN(C[C@@H]2Cc3ccccc3CN2C(=O)c2ccc(Cl)cc2-c2cc(C(=O)N(c3ccc(O)cc3)c3ccc4c(ccn4C)c3)c3n2CCCC3)CC1 [Example 30, 3-{5-Chloro-2-[((3S)-3-[(4-methyl-1-piperazinyl)methyl]-3,4-dihydro-2(1H)-isoquinolinyl)carbonyl]phenyl}-N-(4-hydroxyphenyl)-N-(1-methyl-1H-indol-5-yl)-5,6,7,8-tetrahydro-1-indolizine carboxamide bis(hydrochloride)]	13 nM	–	8.59 nM
O=C(c1cc(-c2cc3c(cc2C(=O)N2Cc4ccccc4C[C@H]2CN2CCOCC2)OCCCO3)n2c1CCCC2)N(c1ccccc1)c1ccc(O)cc1 [Example 31, N-(4-Hydroxyphenyl)-3-{8-[((3S)-3-(4-morpholinylmethyl)-3,4-dihydro-2(1H)-isoquinolinyl)carbonyl]-3,4-dihydro-2H-1,5-benzodioxepin-7-yl}-N-phenyl-5,6,7,8-tetrahydro-1-indolizine carboxamide hydrochloride]	33 nM	–	340 nM
Cn1ccc2cc(N(C(=O)c3cc(-c4cc5c(cc4C(=O)N4Cc6ccccc6C[C@H]4CN4CCOCC4)OCCCO5)n4c3CCCC4)c3ccc(O)cc3)ccc21 [Example 32, N-(4-Hydroxyphenyl)-N-(1-methyl-1H-indol-5-yl)-3-{8-[((3S)-3-(4-morpholinylmethyl)-3,4-dihydro-2(1H)-isoquinolinyl)carbonyl]-3,4-dihydro-2H-1,5-benzodioxepin-7-yl}-5,6,7,8-tetrahydro-1-indolizine carboxamide hydrochloride]	34 nM	–	71.3 nM
COc1ccc(C(=O)N2Cc3ccccc3C[C@H]2CN2CCOCC2)c(-c2cc(C(=O)N(c3ccc(O)cc3)c3ccc4c(ccn4C)c3)c3n2CCCC3)c1 [Example 33, N-(4-Hydroxyphenyl)-3-{5-methoxy-2-[((3S)-3-(4-morpholinylmethyl)-3,4-dihydro-2(1H)-isoquinolinyl)carbonyl]phenyl}-N-(1-methyl-1H-indol-5-yl)-5,6,7,8-tetrahydro-1-indolizine carboxamide hydrochloride]	23 nM	–	12.2 nM
O=C(c1cc(-c2cc3c(cc2C(=O)N2Cc4ccccc4C[C@H]2CN2CCOCC2)OCCO3)n2c1CCCC2)N(c1ccccc1)c1ccc(O)cc1 [Example 34, N-(4-Hydroxyphenyl)-3-{7-[((3S)-3-(4-morpholinylmethyl)-3,4-dihydro-2(1H)-isoquinolinyl)carbonyl]-2,3-dihydro-1,4-benzdioxin-6-yl}-N-phenyl-5,6,7,8-tetrahydro-1-indolizine carboxamide hydrochloride]	27 nM	–	65.8 nM
Cn1ccc2cc(N(C(=O)c3cc(-c4cc5c(cc4C(=O)N4Cc6ccccc6C[C@H]4CN4CCOCC4)OCCO5)n4c3CCCC4)c3ccc(O)cc3)ccc21 [Example 35, N-(4-Hydroxyphenyl)-N-(1-methyl-1H-indol-5-yl)-3-{7-[((3S)-3-(4-morpholinylmethyl)-3,4-dihydro-2(1H)-isoquinolinyl)carbonyl]-2,3-dihydro-1,4-benzodioxin-6-yl}-5,6,7,8-tetrahydro-1-indolizine carboxamide]	15 nM	–	11.7 nM
Cn1ncc2cc(N(C(=O)c3cc(-c4cc5c(cc4C(=O)N4Cc6ccccc6C[C@H]4CN4CCOCC4)OCCO5)n4c3CCCC4)c3ccc(O)cc3)ccc21 [Example 39, N-(4-Hydroxyphenyl)-N-(1-methyl-1H-indazol-5-yl)-3-{7-[((3S)-3-(4-morpholinylmethyl)-3,4-dihydro-2(1H)-isoquinolinyl)carbonyl]-2,3-dihydro-1,4-benzodioxin-6-yl}-5,6,7,8-tetrahydro-1-indolizine carboxamide hydrochloride]	16 nM	–	14.1 nM
